“Also recorded” adds a separate entry of the source. No end group written: not given here.
Columns and labels:
[1] = test system: TPTX rats; test: Serum calcium and phosphate, 28-day daily sc dosing in HP TPTX rat model (Example 2); format: in vivo; settings: 7.7 μg/kg/day
Experimental: Thyroid-parathyroidectomized, or TPTX, rats were treated with daily subcutaneous injection of AZP-3601 at doses ranging from 3.8 μg/kg/day to 30.7 μg/kg/day. Treatment was continued for 28 days. […] The increase in calcium accumulated over time (over the first 15 to 21 days), but became more constant thereafter, indicating the development of a steady-state effect (FIG. 2). Due to the cumulative effect, lower doses of AZP-3601 were required to eventually increase blood calcium levels into the normal range as compared to the dose required with a single injection.

[2] = test system: non-human primates; settings: 10.7 μg/kg or 42.7 μg/kg; cited from earlier work
[3] = test system: subjects with hypoparathyroidism (HP); test: Open-label multiple ascending dose study plus 2-month extension in subjects with hypoparathyroidism (Examples 10, 11); format: in vivo, human
From the text: Part C: Part C of the assessment was an open-label multiple ascending dose (MAD) study in male or female subjects with hypoparathyroidism (HP) who are on standard or care treatment (treatment with oral calcium and active vitamin D) to evaluate the safety and tolerability, PK, and PD of AZP-3601. Up to 2 cohorts of approximately 12 patients each were planned for this part of the study. Prior to the treatment period, there was an optimization period of up to 8 weeks during which doses of oral calcium and active vitamin D were adjusted to achieve a baseline target range of albumin-corrected serum calcium (7.8 to 9.0 mg/dL, ie, 1.95 to 2.25 mmol/L) and therefore ensuring a close baseline for all patients. During this optimization period, any serum 25-hydroxy vitamin D (native vitamin D) and/or magnesium deficiencies were corrected. During the treatment period, patients in Part C received AZP-3601 for 28 days as daily sc abdominal injections (with rotation of injection sites every dosing day). Doses of oral calcium and active vitamin D supplements were reduced during the initial 14 days of treatment while maintaining albumin-corrected serum calcium in the target range (7.8 to 9.0 mg/dL, ie, 1.95 to 2.25 mmol/L). Reductions of both oral calcium and active vitamin D supplements were performed using a staged approach until the active vitamin D dose were eliminated and the oral calcium dose were reduced to or below 500 mg/day. Based on animal data, serum calcium was expected to increase progressively following repeated administration of AZP-3601 and PD steady state was expected to be observed within the first 5 days of dosing. Staggered reductions of doses of oral calcium and active vitamin D supplements were therefore performed at near-steady state based on the predose albumin-corrected serum calcium value. The following treatments are administered in Part C in an open-label fashion: • Cohort C1: multiple sc doses of 20 mg AZP-3601 (n=12) qd from Day 1 to Day 28 (dose increase of AZP-3601 to 40 mg was allowed from Day 14 onwards) • Cohort C2: multiple sc doses of a fixed dose of 10 mg AZP-3601 (n=12) qd from Day 1 to Day 28 (dose of AZP-3601 may be increased at a fixed dose of 20 mg from Day 14 onwards)
During the extension phase, patients had their AZP-3601 dose increased in increments of 10 mg to a maximum dose of 60 mg (Cohort 1) and of 80 mg (Cohort 2).
The extension phase started immediately following Day 28 visit of the Main treatment period. Patients received AZP-3601 for 56 days (2 months) as daily sc injections from Day 29 onwards (with rotation of injection sites each day of administration). The goal was to optimize AZP-3601 dosing across a dose range while doses of oral calcium and active vitamin D were as low as safely possible and albumin-corrected serum calcium was maintained within the target range of 7.8 to 9.0 mg/dL (1.95 to 2.25 mmol/L). For patients who were taking minimal or no supplemental calcium (≤500 mg/day) and no vitamin D on Day 28, the AZP-3601 dose from the previous 14 days of treatment (Part C, Main Treatment Period) was maintained and adjusted when needed during the Extension Phase. For patients who were still taking active vitamin D and/or more than 500 mg/day of oral calcium on Day 28, a progressive reduction of supplements was carried out while increasing the dose of AZP-3601. […]

[4] = Plasma detectability after single injection in cynomolgus monkeys; format: in vivo, cynomolgus monkey
Experimental: To further examine how the potent and sustained biological activity induced by AZP-3601 could translate into potential clinical benefit for […] patients, its activity was examined in normal cynomolgus monkeys, a species much closer to humans and the most relevant for first in human dose-selection. Single injections of AZP-3601 were administered to normal cynomolgus monkeys. […] The dissociation between pharmacokinetic profile and pharmacodynamic effect is due to the short circulating half-life of AZP-3601 as opposed to the prolonged signaling caused by AZP-3601's potent interaction with the R^0 conformation of the PTH1 receptor.

[5] = test system: Cynomolgus monkeys; test: 13-week daily sc study in non-human primates: ex-vivo BMD (DXA), bone histopathology (Example 8); parameters: species or system cynomolgus monkey; settings: Cynomolgus monkeys, 1, 2.5 or 10 μg/kg daily sc, 13 weeks
Experimental: (§1) To further examine the effect of chronic AZP-3601 treatment on bone, both 13-week and 39-week studies were conducted in non-human primates (NHP), which are considered a relevant species with regard to AZP-3601 effects on serum calcium. Groups of 3 or 4 Cynomolgus monkeys of each sex were given daily subcutaneous injections of either vehicle or AZP-3601 at doses of 1, 2.5 or 10 μg/kg for either 13 or 39 weeks, as outlined in Table 2.
• Ex-vivo bone mineral density (BMD) by dual-energy X-ray absorptiometry (DXA) at week 13; • Histopathological examination of bone at week 13.
(§2) At the end of the 13-week study, right femur, right tibia and the L4 lumbar vertebra were collected from 3 animals/group/sex and bone mineral density (BMD) was measured by dual-energy X-ray absorptiometry. The left femur was submitted to histopathological examination. […] In the 39-week study, blood samples were collected from 4 animals/group/sex prior to and during weeks 4, 8, 13, 26 and 39 of treatment for measurement of bone biomarkers. In-life BMD of left femur, left tibia and L4 lumbar vertebra was measured by quantitative computed tomography (qCT) prior to and during weeks 26 and 39 of treatment (FIGS. 9A, 9B, 9C, 9D, 9E and 9F). At the end of the treatment period, femurs were processed for histopathological examination.

[6] = test system: Cynomolgus monkeys; test: 39-week daily sc study in non-human primates: bone biomarkers, BMD (qCT), histopathology (Example 8); format: in vivo, cynomolgus monkey
Experimental: as §1
• Serum bone biomarkers at baseline and weeks 4, 8, 13, 26 and 39; • In-life BMD by quantitative computed tomography (qCT) at baseline and weeks 26 and 39; • Histopathological examination of bone at week 39.
as §2
Prior to treatment, BMD was homogeneous among all groups for all the three bone sites examined.

[7] = test system: TPTX rats; test: Urinary calcium, repeated daily sc dosing in HP TPTX rat model (Example 4); format: in vivo; settings: 30.7 μg/kg/day
Experimental: To examine the effect of repeated dosing with AZP-3601 on urinary calcium levels, TPTX rats were treated with daily subcutaneous injection of AZP-3601 with doses ranging from 3.8 to 30.7 μg/kg/day. As additional controls, separate groups of TPTX rats received daily injections of either natural PTH (1-84) or the vehicle, and a group of normal (with intact thyroid and parathyroid glands, or sham) rats were injected with vehicle. […] The observed increase in urinary calcium excretion with the high dose was a normal kidney response to clear excess blood calcium (FIG. 4).

[8] = test system: PTX mice; test: Serum calcium after single dosing in HP PTX mouse model (Example 1); format: in vivo; settings: compared with PTH (1-34)
From the text: In FIG. 1, the black line indicates the impact of PTX in mice, resulting in serum calcium levels well below normal levels.

[9] = HP subjects of both cohorts, 84 days
[10] = HP subjects, various bone sites, including patients with osteopenia
[11] = Cynomolgus monkeys, 1, 2.5 or 10 μg/kg daily sc, weeks 4 to 39

AVAEIQLMHQRAKWIQDARRRAFLHKLIAEIHTAEI [AZP-3601, M-PTH(1-14)/PTHrP(15-36)]
change in bone at the optimal dose [1]: without producing any significant change in bone | serum calcium at highest dose levels [2]: induced significant hypercalcemia | bone mineral density (BMD) [3, 9]: remains stable | trabecular bone score (TBS) [3, 9]: remains stable | mean bone markers relative to upper limit of normal ([3]; HP subjects, 84 days): never increased either mean bone marker above the upper limit of normal level | T-score [3, 10]: remain stable | Z-score [3, 10]: remain stable | detectability in plasma post-dosing [4]: detectable in plasma for only up to one hour post-dosing | BMD of femur, tibia and L4 lumbar vertebra by DXA [5]: no evidence of any treatment-related effect | histopathological examination of femur [5]: no evidence of any treatment-related effect | anabolic bone biomarker P1NP [6, 11]: no treatment-related changes; also recorded: no significant effect on either anabolic or catabolic bone biomarkers | catabolic bone biomarker CTx [6, 11]: no treatment-related changes; also recorded: no significant effect on either anabolic or catabolic bone biomarkers | in-life BMD of femur, tibia and L4 lumbar vertebra by qCT ([6]; Cynomolgus monkeys, 39-week study, versus pre-treatment values): no statistically significant changes in BMD | histological examination of the femur ([6]; Cynomolgus monkeys, week 39): no noteworthy findings | serum calcium at the highest dose [7]: induced overt hypercalcemia | half-life [8]: equally short half-life as PTH (1-34)

Source: patent US20250032590A1, “PARATHYROID HORMONE COMPOUNDS IN THE TREATMENT OF HYPOPARATHYROIDISM” (AMOLYT PHARMA, priority 2023, published 2025)
